Laboratory results reported in article PMC11259170, “Small-molecule probe for IBD risk variant GPR65 I231L alters cytokine signaling networks through positive allosteric modulation” (Science Advances, 2024).
In brackets after ≈: the same amount, converted by molar mass.

Assays:
[1] = Solubility in phosphate buffer; format: physicochemical; conditions: read-out: solubility in phosphate buffer
[2] = test system: GFP-expressing HeLa cells; assay: cAMP detection in HeLa expression cell line, GFP control; format: cell-based, human; conditions: Homo sapiens, HeLa, 1st GFP column pair, NA = no activity
In short: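 TR-FRET cAMP read-out (Lance Ultra; ex 337 nm, em 620 and 665 nm) after 1 h detection in the dark, following a 30 min RT stimulation of 1500 cells per well in pH 7.2 stimulation buffer with compound supplied as 10 mM DMSO stock. Cells: lentivirally transduced HeLa lines carrying V5-tagged GPCR or GFP, kept under 3 μg/ml puromycin.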

[3] = test system: GPR65 KO HeLa cells + pLX empty vector; assay: cAMP detection, GPR65 KO HeLa + empty pLX vector (null control); format: cell-based, human; conditions: Homo sapiens, 0.5 h; HeLa GPR65 KO + pLX, pH 7.1, 30 min, normalized to DMSO and 100 μM forskolin
In short: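 CRISPR GPR65-KO HeLa cells, lentivirally reconstituted with hGPR65, mGPR65 or empty vector, were treated at 5000 cells/well in HBSS/Hepes with 0.5 mM IBMX at pH 7.1. Compounds were tested at 25 μM (primary screen) or 195 nM–100 μM (dose curves) for 30 min at RT. cAMP was read by Lance Ultra TR-FRET (665/615 nm) after 1 hour.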

Compound: Cc1ccc(NC(=O)c2cnn3c(O)cc(-c4ccc(COC(C)C)cc4)nc23)nc1 [BRD5075, O=C(NC1=NC=C(C)C=C1)C2=C3N(N=C2)C(O)=CC(C4=CC=C(COC(C)C)C=C4)=N3]
- solubility [1]: 116 µM (≈ 48.4 µg/mL)

Compound: CN1N=C(SCc2ccc(Cl)cc2Cl)Sc2c1cnn(C)c2=O [BTB09089, reference compound]
- EC50 [2]: 194 nM
- Emax ([2]; relative to 100uM forskolin (100%) and DMSO (0%), read-out: GFP Max Activity %): 1.95%
- EC50 [3]: > 100 µM
